In the NIST ThermoML archive (doi:10.1016/j.jct.2016.09.007):
Numbers after ± are expanded uncertainties.

Columns and labels:
[1] = 93.2 kPa, Liquid; for speed of sound: Frequency=3 MHz, Sing-around technique in a fixed-path interferometer; for mass density: Vibrating tube method
[2] = xn = mol fraction of the nth substance listed; details: 93.2 kPa, Liquid, x2 = 0; for speed of sound: Frequency=3 MHz, Sing-around technique in a fixed-path interferometer; for mass density: Vibrating tube method

| speed of sound ([1]; 293.15 K) [m/s] | mass density ([1]; 293.15 K) [kg/m3] | speed of sound ([1]; 298.15 K) [m/s] | mass density ([1]; 298.15 K) [kg/m3] | speed of sound ([1]; 303.15 K) [m/s] | mass density ([1]; 303.15 K) [kg/m3] | speed of sound ([1]; 308.15 K) [m/s] | mass density ([1]; 308.15 K) [kg/m3] | speed of sound ([1]; 313.15 K) [m/s] | mass density ([1]; 313.15 K) [kg/m3] | speed of sound ([2]; 293.15 K) [m/s] | mass density ([2]; 293.15 K) [kg/m3] | speed of sound ([2]; 298.15 K) [m/s] | mass density ([2]; 298.15 K) [kg/m3] | speed of sound ([2]; 303.15 K) [m/s] | mass density ([2]; 303.15 K) [kg/m3] | speed of sound ([2]; 308.15 K) [m/s] | mass density ([2]; 308.15 K) [kg/m3] | speed of sound ([2]; 313.15 K) [m/s] | mass density ([2]; 313.15 K) [kg/m3] | Compound |
| --- | --- | --- | --- | --- | --- | --- | --- | --- | --- | --- | --- | --- | --- | --- | --- | --- | --- | --- | --- | --- |
| 1256.8 ± 5.3 | 809.523 ± 4 | 1239.7 ± 5.3 | 805.71 ± 4 | 1222.8 ± 5.3 | 801.872 ± 4 | 1206.1 ± 5.3 | 798.004 ± 4 | 1189.5 ± 5.2 | 794.103 ± 4 | – | – | – | – | – | – | – | – | – | – | CCCCO [butan-1-ol] |
| – | – | – | – | – | – | – | – | – | – | 1256.8 ± 5.3 | 809.523 ± 4 | 1239.7 ± 5.3 | 805.71 ± 4 | 1222.8 ± 5.3 | 801.872 ± 4 | 1206.1 ± 5.3 | 798.004 ± 4 | 1189.5 ± 5.2 | 794.103 ± 4 | CCCCO [butan-1-ol] + CCCC(=O)[O-].CCCC[NH3+] |
| 1161 ± 5.2 | 789.657 ± 4 | 1143.8 ± 5.2 | 785.366 ± 4 | 1126.8 ± 5.2 | 781.043 ± 4 | 1109.9 ± 5.2 | 776.696 ± 4 | 1093.1 ± 5.2 | 772.313 ± 4 | – | – | – | – | – | – | – | – | – | – | CCO [ethanol] |
| – | – | – | – | – | – | – | – | – | – | 1161 ± 5.2 | 789.657 ± 4 | 1143.8 ± 5.2 | 785.366 ± 4 | 1126.8 ± 5.2 | 781.043 ± 4 | 1109.9 ± 5.2 | 776.696 ± 4 | 1093.1 ± 5.2 | 772.313 ± 4 | CCO [ethanol] + CCCC(=O)[O-].CCCC[NH3+] |
| 1119.1 ± 5.2 | 791.347 ± 4 | 1102.5 ± 5.2 | 786.636 ± 4 | 1086 ± 5.2 | 781.907 ± 4 | 1069.7 ± 5.2 | 777.156 ± 4 | 1053.6 ± 5.2 | 772.385 ± 4 | – | – | – | – | – | – | – | – | – | – | CO [methanol] |
| – | – | – | – | – | – | – | – | – | – | 1119.1 ± 5.2 | 791.347 ± 4 | 1102.5 ± 5.2 | 786.636 ± 4 | 1086 ± 5.2 | 781.907 ± 4 | 1069.7 ± 5.2 | 777.156 ± 4 | 1053.6 ± 5.2 | 772.385 ± 4 | CO [methanol] + CCCC(=O)[O-].CCCC[NH3+] |
| 1431.5 ± 5.3 | 928.794 ± 4 | 1410.3 ± 5.3 | 925.509 ± 4 | 1390.4 ± 5.3 | 922.217 ± 4 | 1371.5 ± 5.3 | 918.88 ± 4 | 1353.6 ± 5.3 | 915.567 ± 4 | – | – | – | – | – | – | – | – | – | – | CCCC(=O)[O-].CCCC[NH3+] [n-butylammonium butanoate] |
| 1292.8 ± 5.3 | 814.807 ± 4 | 1275.7 ± 5.3 | 811.144 ± 4 | 1258.8 ± 5.3 | 807.455 ± 4 | 1242.1 ± 5.3 | 803.736 ± 4 | 1225.5 ± 5.3 | 799.99 ± 4 | – | – | – | – | – | – | – | – | – | – | CCCCCO [pentan-1-ol] |
| – | – | – | – | – | – | – | – | – | – | 1292.8 ± 5.3 | 814.807 ± 4 | 1275.7 ± 5.3 | 811.144 ± 4 | 1258.8 ± 5.3 | 807.455 ± 4 | 1242.1 ± 5.3 | 803.736 ± 4 | 1225.5 ± 5.3 | 799.99 ± 4 | CCCCCO [pentan-1-ol] + CCCC(=O)[O-].CCCC[NH3+] |
| 1223.1 ± 5.3 | 803.625 ± 4 | 1205.8 ± 5.3 | 799.62 ± 4 | 1188.6 ± 5.3 | 795.582 ± 4 | 1171.6 ± 5.3 | 791.511 ± 4 | 1154.9 ± 5.3 | 787.407 ± 4 | – | – | – | – | – | – | – | – | – | – | CCCO [propan-1-ol] |
| – | – | – | – | – | – | – | – | – | – | 1223.1 ± 5.3 | 803.625 ± 4 | 1205.8 ± 5.3 | 799.62 ± 4 | 1188.6 ± 5.3 | 795.582 ± 4 | 1171.6 ± 5.3 | 791.511 ± 4 | 1154.9 ± 5.3 | 787.407 ± 4 | CCCO [propan-1-ol] + CCCC(=O)[O-].CCCC[NH3+] |
